Columns and labels:
[1] = target: 72 kDa type IV collagenase (Homo sapiens, UniProt P08253); assay: Inhibition of human recombinant MMP2 transfected in mouse melanoma cells; assay type: cell-based
Carbonic anhydrase 1 = Carbonic anhydrase 1 (Homo sapiens, UniProt P00915)
Description: Inhibition of human recombinant CA1 by stopped-flow CO2 hydrase assay

[2] = target: Matrix metalloproteinase-14 (Homo sapiens, UniProt P50281); assay: Inhibition of MMP14
Carbonic anhydrase 9 = Carbonic anhydrase 9 (Homo sapiens, UniProt Q16790); assay: Inhibition of human recombinant CA9 catalytic domain by stopped-flow CO2 hydrase assay
Neutrophil collagenase = Neutrophil collagenase (Homo sapiens, UniProt P22894); assay: Inhibition of MMP8
[3] = target: Matrix metalloproteinase-9 (Homo sapiens, UniProt P14780); assay: Inhibition of MMP9
[4] = target: Matrix metalloproteinase-16 (Homo sapiens, UniProt P51512); assay: Inhibition of MMP16
Interstitial collagenase = target: T1, Interstitial collagenase (Homo sapiens, UniProt P03956); assay: Inhibition of MMP1
T1 sequence (P03956 whole entry): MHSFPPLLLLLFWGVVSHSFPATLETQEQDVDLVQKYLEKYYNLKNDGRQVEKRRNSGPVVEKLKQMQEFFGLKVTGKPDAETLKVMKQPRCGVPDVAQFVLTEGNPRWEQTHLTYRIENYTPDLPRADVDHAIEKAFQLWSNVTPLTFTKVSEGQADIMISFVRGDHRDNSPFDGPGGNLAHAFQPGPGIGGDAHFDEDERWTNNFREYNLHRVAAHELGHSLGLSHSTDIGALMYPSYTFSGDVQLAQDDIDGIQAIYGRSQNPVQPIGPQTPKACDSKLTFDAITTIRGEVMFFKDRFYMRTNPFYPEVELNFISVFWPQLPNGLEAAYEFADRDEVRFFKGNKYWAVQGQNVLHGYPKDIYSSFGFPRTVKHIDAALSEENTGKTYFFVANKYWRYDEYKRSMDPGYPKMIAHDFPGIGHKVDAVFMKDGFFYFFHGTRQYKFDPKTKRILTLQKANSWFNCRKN

Homo sapiens [5] = organism: Homo sapiens; assay: Selectivity for human recombinant CA9 to human recombinant CA1
Homo sapiens [6] = organism: Homo sapiens; assay: Selectivity for human recombinant CA9 to human recombinant CA2
[7] = target: Disintegrin and metalloproteinase domain-containing protein 17 (Homo sapiens, UniProt P78536); assay: Inhibition of TACE
Collagenase 3 = Collagenase 3 (Homo sapiens, UniProt P45452)
Carbonic anhydrase 2 = Carbonic anhydrase 2 (Homo sapiens, UniProt P00918)
Description: Inhibition of human recombinant CA2 by stopped-flow CO2 hydrase assay

Chain of Carbonic anhydrase 1 (P00915 whole entry): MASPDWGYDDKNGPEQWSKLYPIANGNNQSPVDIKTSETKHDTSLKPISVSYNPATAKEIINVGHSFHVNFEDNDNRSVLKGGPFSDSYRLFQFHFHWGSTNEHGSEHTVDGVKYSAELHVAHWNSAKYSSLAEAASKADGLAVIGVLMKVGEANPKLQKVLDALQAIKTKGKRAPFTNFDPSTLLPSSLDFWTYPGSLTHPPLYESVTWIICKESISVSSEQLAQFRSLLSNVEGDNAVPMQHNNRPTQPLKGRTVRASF
Chain of 72 kDa type IV collagenase (P08253 whole entry): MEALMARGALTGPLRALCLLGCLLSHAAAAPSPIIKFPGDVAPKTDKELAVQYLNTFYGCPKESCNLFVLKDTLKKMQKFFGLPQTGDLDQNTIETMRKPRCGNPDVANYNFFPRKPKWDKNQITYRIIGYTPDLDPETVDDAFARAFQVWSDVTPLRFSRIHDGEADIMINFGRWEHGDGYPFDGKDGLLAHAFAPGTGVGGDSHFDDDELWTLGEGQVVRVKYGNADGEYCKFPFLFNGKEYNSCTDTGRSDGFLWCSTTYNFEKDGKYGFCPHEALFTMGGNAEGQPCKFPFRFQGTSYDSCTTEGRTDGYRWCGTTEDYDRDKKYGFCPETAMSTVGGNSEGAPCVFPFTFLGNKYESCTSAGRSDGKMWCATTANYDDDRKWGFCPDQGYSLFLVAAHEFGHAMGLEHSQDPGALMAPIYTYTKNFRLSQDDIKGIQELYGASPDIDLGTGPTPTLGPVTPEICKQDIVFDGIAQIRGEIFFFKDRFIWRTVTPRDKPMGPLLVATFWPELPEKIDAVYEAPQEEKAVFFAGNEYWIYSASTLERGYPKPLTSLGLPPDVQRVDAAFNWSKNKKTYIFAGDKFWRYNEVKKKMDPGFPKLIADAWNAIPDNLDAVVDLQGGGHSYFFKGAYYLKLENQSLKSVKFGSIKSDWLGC
Chain of Matrix metalloproteinase-9 (P14780 whole entry): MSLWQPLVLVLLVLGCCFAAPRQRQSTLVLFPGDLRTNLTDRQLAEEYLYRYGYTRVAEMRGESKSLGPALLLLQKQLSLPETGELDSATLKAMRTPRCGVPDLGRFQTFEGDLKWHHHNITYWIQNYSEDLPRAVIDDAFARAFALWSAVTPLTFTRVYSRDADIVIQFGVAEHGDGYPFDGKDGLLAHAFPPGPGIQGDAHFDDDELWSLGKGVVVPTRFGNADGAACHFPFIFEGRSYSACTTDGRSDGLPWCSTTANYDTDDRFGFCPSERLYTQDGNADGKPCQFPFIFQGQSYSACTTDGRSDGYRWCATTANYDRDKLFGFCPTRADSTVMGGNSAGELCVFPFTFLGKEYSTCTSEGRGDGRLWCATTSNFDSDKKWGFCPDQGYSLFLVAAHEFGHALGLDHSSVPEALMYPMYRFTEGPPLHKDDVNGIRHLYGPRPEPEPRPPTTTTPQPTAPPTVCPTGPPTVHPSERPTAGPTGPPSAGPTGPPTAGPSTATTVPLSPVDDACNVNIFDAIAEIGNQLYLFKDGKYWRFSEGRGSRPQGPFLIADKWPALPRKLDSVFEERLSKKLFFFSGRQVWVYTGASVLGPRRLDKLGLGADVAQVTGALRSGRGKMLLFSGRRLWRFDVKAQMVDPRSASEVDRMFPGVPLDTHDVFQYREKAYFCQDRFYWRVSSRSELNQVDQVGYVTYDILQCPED
Chain of Neutrophil collagenase (P22894 whole entry): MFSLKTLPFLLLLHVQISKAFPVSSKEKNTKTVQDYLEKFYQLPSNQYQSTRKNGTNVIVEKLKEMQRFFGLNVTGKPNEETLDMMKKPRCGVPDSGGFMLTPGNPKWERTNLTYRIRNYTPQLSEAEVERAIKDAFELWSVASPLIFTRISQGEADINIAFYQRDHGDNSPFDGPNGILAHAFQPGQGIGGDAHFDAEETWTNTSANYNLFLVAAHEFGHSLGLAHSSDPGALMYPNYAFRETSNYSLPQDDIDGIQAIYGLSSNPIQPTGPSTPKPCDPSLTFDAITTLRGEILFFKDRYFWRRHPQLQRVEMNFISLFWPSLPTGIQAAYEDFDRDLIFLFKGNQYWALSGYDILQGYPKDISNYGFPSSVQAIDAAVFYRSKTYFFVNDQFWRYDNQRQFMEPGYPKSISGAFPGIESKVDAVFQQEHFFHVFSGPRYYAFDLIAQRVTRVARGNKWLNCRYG
Chain of Matrix metalloproteinase-16 (P51512 whole entry): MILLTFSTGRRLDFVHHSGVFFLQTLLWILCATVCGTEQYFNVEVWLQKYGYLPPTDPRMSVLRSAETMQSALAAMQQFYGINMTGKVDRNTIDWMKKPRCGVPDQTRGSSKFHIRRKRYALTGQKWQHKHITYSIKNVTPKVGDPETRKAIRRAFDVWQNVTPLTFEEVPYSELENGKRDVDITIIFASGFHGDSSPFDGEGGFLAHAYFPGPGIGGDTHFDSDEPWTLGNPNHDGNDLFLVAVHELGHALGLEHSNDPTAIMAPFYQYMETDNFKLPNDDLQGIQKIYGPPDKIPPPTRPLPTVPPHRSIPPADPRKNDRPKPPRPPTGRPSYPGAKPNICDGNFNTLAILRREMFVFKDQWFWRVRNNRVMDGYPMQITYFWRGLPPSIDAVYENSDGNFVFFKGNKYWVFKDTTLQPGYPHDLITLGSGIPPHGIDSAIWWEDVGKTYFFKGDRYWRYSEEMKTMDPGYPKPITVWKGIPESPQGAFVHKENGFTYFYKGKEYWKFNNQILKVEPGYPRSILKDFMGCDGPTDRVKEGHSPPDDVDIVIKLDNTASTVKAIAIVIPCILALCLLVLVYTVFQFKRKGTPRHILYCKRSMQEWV
Chain of Disintegrin and metalloproteinase domain-containing protein 17 (P78536 whole entry, the tested form may be a part): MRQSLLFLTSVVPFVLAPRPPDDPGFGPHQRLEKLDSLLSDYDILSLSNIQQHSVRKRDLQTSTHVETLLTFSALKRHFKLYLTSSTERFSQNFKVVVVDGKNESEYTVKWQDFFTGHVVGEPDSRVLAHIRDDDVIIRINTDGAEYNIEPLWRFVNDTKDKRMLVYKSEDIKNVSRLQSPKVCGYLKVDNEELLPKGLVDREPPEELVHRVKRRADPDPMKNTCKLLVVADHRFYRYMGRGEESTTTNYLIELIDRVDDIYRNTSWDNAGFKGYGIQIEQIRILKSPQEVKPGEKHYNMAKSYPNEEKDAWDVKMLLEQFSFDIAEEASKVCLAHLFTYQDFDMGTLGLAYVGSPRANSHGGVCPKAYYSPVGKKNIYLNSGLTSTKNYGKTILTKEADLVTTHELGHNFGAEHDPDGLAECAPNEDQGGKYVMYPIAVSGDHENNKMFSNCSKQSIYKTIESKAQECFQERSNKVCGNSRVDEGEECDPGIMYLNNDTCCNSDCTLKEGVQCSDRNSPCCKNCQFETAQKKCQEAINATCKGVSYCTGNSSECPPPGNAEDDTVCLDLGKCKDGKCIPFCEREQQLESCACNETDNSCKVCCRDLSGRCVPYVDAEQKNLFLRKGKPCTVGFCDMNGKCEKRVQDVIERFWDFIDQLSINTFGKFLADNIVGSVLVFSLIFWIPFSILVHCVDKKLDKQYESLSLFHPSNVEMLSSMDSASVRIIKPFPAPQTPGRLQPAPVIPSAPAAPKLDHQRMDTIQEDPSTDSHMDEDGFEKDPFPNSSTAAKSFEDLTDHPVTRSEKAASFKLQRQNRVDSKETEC

IC50 [1] [nM]	Ki (Carbonic anhydrase 1) [nM]	IC50 [2] [nM]	Ki (Carbonic anhydrase 9) [nM]	IC50 (Neutrophil collagenase) [nM]	IC50 [3] [nM]	IC50 [4] [nM]	IC50 (Interstitial collagenase) [nM]	Selectivity ratio (Homo sapiens [5])	Selectivity ratio (Homo sapiens [6])	IC50 [7] [nM]	IC50 (Collagenase 3) [nM]	Ki (Carbonic anhydrase 2) [nM]	Compound
2230	3430	8950	6.4	4360									NS(=O)(=O)c1ccc(CCNC(=O)CN(CC(=O)O)S(=O)(=O)c2ccc(Oc3ccccc3)cc2)cc1
> 100000	2340	> 100000			> 300000								NS(=O)(=O)c1ccc(CCNC(=O)CN(CC(=O)NO)Cc2ccccc2)cc1
0.5		3.9		0.4	0.77	1.56	59	7.9	1.3	2290	0.33		CC(C)[C@H](C(=O)NO)N(CC(=O)O)S(=O)(=O)c1ccc(Oc2ccccc2)cc1
24.7		306		4.3	27.7		236	7.9	1.3				CC(C)[C@H](C(=O)NO)N(CC(=O)O)S(=O)(=O)c1ccc(-c2ccccc2)cc1
						6.8							COc1ccc(S(=O)(=O)N(Cc2cccnc2)[C@@H](C(=O)NO)C(C)C)cc1 [CGS-27023A]
1.2		14		3.7	3.2	11.4	1530	7.9	1.3		1.6		O=C(O)CN(CC(=O)NO)S(=O)(=O)c1ccc(Oc2ccccc2)cc1

More lines, now with the values behind:

Compound	IC50 [1] [nM]	Ki (Carbonic anhydrase 1) [nM]	IC50 [2] [nM]	Ki (Carbonic anhydrase 9) [nM]	IC50 (Neutrophil collagenase) [nM]	IC50 [3] [nM]	IC50 [4] [nM]	IC50 (Interstitial collagenase) [nM]	Selectivity ratio (Homo sapiens [5])	Selectivity ratio (Homo sapiens [6])	IC50 [7] [nM]	IC50 (Collagenase 3) [nM]	Ki (Carbonic anhydrase 2) [nM]
COc1ccc(S(=O)(=O)N(CC(=O)NO)CC(=O)NCCc2ccc(S(N)(=O)=O)cc2)cc1	25.3	1770	89.8	13	59	53.7	44	532					
NS(=O)(=O)c1ccc(CCNC(=O)CN(CC(=O)O)S(=O)(=O)c2ccc(-c3ccccc3)cc2)cc1	5120	116	33900	3.8	8200								
COc1ccc(S(=O)(=O)N(CC(=O)O)CC(=O)NO)cc1	193		1690		1010	322	996	6770					
NS(=O)(=O)c1ccc(CCNC(=O)CN(CC(=O)NO)S(=O)(=O)c2ccc(Oc3ccccc3)cc2)cc1	1.57		2.1		0.74	0.51	1	143					
CC(C)[C@H](C(=O)NO)N(CC(=O)NCCc1ccc(S(N)(=O)=O)cc1)S(=O)(=O)c1ccc(Oc2ccccc2)cc1	0.35	730	0.32	3.3	0.29	0.21	0.31	7.8		1.3	55	0.12	4.2
COc1ccc(S(=O)(=O)N(CC(=O)O)[C@@H](C(=O)NO)C(C)C)cc1	145		353		29.2	62		235	7.9	1.3			
NS(=O)(=O)c1ccc(CCNC(=O)CN(CC(=O)NO)S(=O)(=O)c2ccc(-c3ccccc3)cc2)cc1	16.2		260		35	66	186	542					
